Measured values as given in BigSolDB 2.1.

Oc1ccc(OCc2ccccc2)cc1
solubility (mole fraction)
Conditions | 283.15 K | 288.15 K | 293.15 K | 298.15 K | 303.15 K | 308.15 K | 313.15 K | 318.15 K | 323.15 K | 328.15 K
in ethanol | 0.0483 | 0.056 | 0.0644 | 0.0737 | 0.0846 | 0.0956 | 0.109 | 0.123 | 0.137 | 0.155
in ethylene glycol | 0.0053 | 0.00664 | 0.00822 | 0.0101 | 0.0125 | 0.0149 | 0.018 | 0.0216 | 0.0257 | 0.0302
in isopropanol | 0.0217 | 0.0261 | 0.0308 | 0.0365 | 0.0425 | 0.0503 | 0.0583 | 0.0671 | 0.0778 | 0.0896
in n-propanol | 0.0381 | 0.0446 | 0.052 | 0.0605 | 0.0702 | 0.0804 | 0.0931 | 0.106 | 0.12 | 0.137
in water | 3.57e-06 | 4.49e-06 | 5.64e-06 | 7.04e-06 | 8.71e-06 | 1.07e-05 | 1.3e-05 | 1.57e-05 | 1.91e-05 | 2.29e-05
